The test system of experiment [1] is Rattus norvegicus. Briefly: Antiallodynic activity in Sprague-Dawley rat model of neuropathic mechanical allodynia assessed as increase in paw withdrawal threshold at 0.1 mg/kg, IM measured at 4 hr post last dose by von Frey test. It counts as functional.
Experiment [2] deals with T1, GABA-B receptor (Homo sapiens) (UniProt Q9UBS5+O75899). Kind of experiment: Agonist activity at human GABAB expressed in HEK293T cells co-transfected with human CaV2.2-alpha2delta1 channel assessed as inhibition of CaV2.2-mediated Ba2+ peak-current amplitude at 100 nM at -80 to 10 mV holding potential after 72 hrs by whole cell patch clamp assay relative to control. In kind it is cell-based. The conditions noted are these: filed as agonist. Background: In patch-clamp work, channel activity is measured electrically.

The subject of experiment [3] is Rattus norvegicus. Briefly: Antiallodynic activity in Sprague-Dawley rat model of neuropathic mechanical allodynia assessed as increase in paw withdrawal threshold administered intramuscularly measured at 1 to 24 hrs post last dose by von Frey test. It counts as functional, organism-based. The conditions noted are these: dose 0.03-0.1 mg/kg, time 1-24 hrs.
In another experiment the target is GABA-B receptor (Homo sapiens, UniProt O75899+Q9UBS5). Kind of experiment: Agonist activity at human GABAB expressed in HEK293T cells co-transfected with human CaV2.2 channel assessed as inhibition of CaV2.2-mediated Ba2+ peak-current amplitude at -80 to 10 mV holding potential after 72 hrs by whole cell patch clamp assay. In kind it is cell-based.
Sequence of GABA-B receptor (Q9UBS5 whole entry): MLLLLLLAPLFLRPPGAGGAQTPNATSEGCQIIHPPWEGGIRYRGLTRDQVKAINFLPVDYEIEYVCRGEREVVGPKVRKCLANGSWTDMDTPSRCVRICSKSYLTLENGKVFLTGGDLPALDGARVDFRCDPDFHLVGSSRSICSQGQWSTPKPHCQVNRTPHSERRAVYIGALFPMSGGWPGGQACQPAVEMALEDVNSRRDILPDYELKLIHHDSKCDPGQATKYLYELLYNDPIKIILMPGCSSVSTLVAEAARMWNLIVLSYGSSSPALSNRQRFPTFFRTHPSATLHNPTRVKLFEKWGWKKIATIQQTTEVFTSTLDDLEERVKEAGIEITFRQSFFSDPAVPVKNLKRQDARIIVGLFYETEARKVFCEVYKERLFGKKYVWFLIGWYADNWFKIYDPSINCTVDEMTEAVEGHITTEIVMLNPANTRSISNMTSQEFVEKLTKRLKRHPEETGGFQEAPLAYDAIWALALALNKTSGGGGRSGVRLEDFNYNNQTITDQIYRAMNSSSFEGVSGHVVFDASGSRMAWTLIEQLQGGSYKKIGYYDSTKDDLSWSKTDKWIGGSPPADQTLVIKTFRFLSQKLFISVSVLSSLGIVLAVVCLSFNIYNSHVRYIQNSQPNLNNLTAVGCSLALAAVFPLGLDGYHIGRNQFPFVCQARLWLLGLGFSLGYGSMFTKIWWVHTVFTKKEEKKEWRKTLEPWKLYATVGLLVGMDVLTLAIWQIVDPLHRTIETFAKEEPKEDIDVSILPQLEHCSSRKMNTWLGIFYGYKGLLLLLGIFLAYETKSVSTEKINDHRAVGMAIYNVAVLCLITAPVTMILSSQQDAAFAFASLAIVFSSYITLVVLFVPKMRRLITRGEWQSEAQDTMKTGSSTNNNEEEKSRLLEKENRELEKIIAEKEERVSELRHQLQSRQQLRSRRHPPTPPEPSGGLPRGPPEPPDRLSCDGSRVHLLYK
Sequence of GABA-B receptor (O75899 whole entry): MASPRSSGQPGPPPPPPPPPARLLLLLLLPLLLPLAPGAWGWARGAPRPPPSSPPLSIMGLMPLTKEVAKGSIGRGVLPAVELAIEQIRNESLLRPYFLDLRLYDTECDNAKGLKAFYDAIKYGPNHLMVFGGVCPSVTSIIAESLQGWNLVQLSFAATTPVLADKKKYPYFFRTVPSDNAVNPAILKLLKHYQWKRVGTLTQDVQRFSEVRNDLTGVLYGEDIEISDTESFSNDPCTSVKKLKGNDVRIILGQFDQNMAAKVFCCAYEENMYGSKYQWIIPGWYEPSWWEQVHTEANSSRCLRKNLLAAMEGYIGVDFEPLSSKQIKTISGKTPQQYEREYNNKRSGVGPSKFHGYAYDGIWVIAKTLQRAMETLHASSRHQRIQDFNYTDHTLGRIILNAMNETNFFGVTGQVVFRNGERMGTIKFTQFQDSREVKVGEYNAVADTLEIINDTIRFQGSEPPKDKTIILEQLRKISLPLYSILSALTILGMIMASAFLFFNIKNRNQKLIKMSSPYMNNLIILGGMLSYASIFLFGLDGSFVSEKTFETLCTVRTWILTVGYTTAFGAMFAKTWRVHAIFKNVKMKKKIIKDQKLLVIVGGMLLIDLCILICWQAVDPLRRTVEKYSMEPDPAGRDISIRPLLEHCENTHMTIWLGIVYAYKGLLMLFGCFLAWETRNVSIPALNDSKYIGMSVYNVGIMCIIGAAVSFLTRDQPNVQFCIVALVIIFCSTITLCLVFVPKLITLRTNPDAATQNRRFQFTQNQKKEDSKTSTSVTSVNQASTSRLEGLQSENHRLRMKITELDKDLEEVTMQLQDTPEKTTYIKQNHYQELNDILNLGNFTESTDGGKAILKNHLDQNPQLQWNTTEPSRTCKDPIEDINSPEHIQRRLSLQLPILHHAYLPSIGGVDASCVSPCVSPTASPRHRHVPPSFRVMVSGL
The target of experiment [4] is T1, GABA-B receptor (Homo sapiens). Kind of experiment: Agonist activity at human GABAB expressed in HEK293T cells co-transfected with human CaV2.2-beta3 channel assessed as inhibition of CaV2.2-mediated Ba2+ peak-current amplitude at 100 nM at -80 to 10 mV holding potential after 72 hrs by whole cell patch clamp assay relative to control. It counts as cell-based. The conditions noted are these: filed as agonist.

Experiment [5] relates to Rattus norvegicus. Briefly: Antiallodynic activity in Sprague-Dawley rat model of neuropathic mechanical allodynia assessed as increase in paw withdrawal threshold at 0.1 mg/kg, IM measured at 1 hr post last dose by von Frey test. In kind it is functional.
The test system of experiment [6] is Rattus norvegicus. Briefly: Antiallodynic activity in Sprague-Dawley rat model of neuropathic mechanical allodynia assessed as increase in paw withdrawal threshold at 0.1 mg/kg, IM measured at 24 hrs post last dose by von Frey test. In kind it is functional.
In experiment [7] the target is T2, Neuronal acetylcholine receptor; alpha3/beta2 (Homo sapiens) (UniProt P17787+P32297). Kind of experiment: Antagonist activity at human alpha3beta2 nAChR expressed in Xenopus laevis oocytes assessed as inhibition of Ach-induced response at 30 uM incubated for 5 mins by two electrode voltage-clamp assay relative to control. In kind it is cell-based. The conditions noted are these: Oocyte. In general terms: Two-electrode voltage clamp is typically applied to oocytes expressing channels or transporters.

Experiment [8] deals with Neuronal acetylcholine receptor subunit alpha-7 (Homo sapiens) (UniProt P36544). Kind of experiment: Antagonist activity at human alpha7 nAChR expressed in Xenopus laevis oocytes assessed as inhibition of Ach-induced response incubated for 5 mins by two electrode voltage-clamp assay. In kind it is cell-based. The note with it: Oocyte, dose 1-30 µM.
Sequence of Neuronal acetylcholine receptor subunit alpha-7 (Homo sapiens) (P36544 whole entry): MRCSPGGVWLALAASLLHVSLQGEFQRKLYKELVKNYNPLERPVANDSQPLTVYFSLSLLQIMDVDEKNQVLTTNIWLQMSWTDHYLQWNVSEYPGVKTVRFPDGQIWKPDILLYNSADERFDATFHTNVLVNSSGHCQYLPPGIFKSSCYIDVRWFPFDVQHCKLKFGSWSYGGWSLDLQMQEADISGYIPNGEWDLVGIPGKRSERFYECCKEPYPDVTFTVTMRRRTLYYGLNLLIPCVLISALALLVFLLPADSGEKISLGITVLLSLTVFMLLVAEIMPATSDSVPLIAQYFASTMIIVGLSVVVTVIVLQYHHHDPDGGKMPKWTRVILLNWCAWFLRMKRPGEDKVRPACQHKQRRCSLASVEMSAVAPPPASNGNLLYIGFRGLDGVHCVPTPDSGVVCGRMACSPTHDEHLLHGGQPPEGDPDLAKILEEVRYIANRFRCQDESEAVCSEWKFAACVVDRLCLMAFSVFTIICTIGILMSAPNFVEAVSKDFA
Experiment [9] has as its target T1, GABA-B receptor (Homo sapiens). Briefly: Agonist activity at human GABAB expressed in HEK293T cells co-transfected with human CaV2.2-alpha1B channel assessed as inhibition of CaV2.2-mediated Ba2+ peak-current amplitude at 100 nM at -80 to 10 mV holding potential after 72 hrs by whole cell patch clamp assay relative to control. It counts as cell-based. The conditions noted are these: filed as agonist.

Experiment [10] has as its system Rattus norvegicus. Briefly: Antiallodynic activity in Sprague-Dawley rat model of neuropathic mechanical allodynia assessed as increase in paw withdrawal threshold at 0.1 mg/kg, IM measured at 6 hr post last dose by von Frey test. In kind it is functional.
The target in experiment [11] is T3, Neuronal acetylcholine receptor; alpha9/alpha10 (Homo sapiens) (UniProt Q9UGM1+Q9GZZ6). Kind of experiment: Antagonist activity at human alpha9/alpha10 nAChR expressed in Xenopus laevis oocytes assessed as inhibition of Ach-induced response at 30 uM incubated for 5 mins by two electrode voltage-clamp assay. It counts as cell-based. The note with it: Oocyte.
Experiment [12] has as its system Rattus norvegicus. Briefly: Antiallodynic activity in Sprague-Dawley rat model of neuropathic mechanical allodynia assessed as increase in paw withdrawal threshold at 0.1 mg/kg, IM measured at 2 hr post last dose by von Frey test. In kind it is functional.
Experiment [13] addresses Nicotinic acetylcholine receptor alpha6/alpha3/beta4 (Homo sapiens) (UniProt P30926+P32297+Q15825). Kind of experiment: Antagonist activity at human alpha6/alpha3beta4 nAChR expressed in Xenopus laevis oocytes assessed as inhibition of Ach-induced response at 1 to 30 uM incubated for 5 mins by two electrode voltage-clamp assay. The conditions noted are these: Oocyte, filed as antagonist, dose 1-30 µM. It counts as cell-based.

Experiment [14] has as its target Neuronal acetylcholine receptor; alpha3/beta4 (Homo sapiens) (UniProt P30926+P32297). Kind of experiment: Antagonist activity at human alpha3beta4 nAChR expressed in Xenopus laevis oocytes assessed as inhibition of Ach-induced response at 1 to 30 uM incubated for 5 mins by two electrode voltage-clamp assay. It counts as cell-based. The conditions noted are these: Oocyte, filed as antagonist, dose 1-30 µM.

For experiment [15], the target named is T2, Neuronal acetylcholine receptor; alpha3/beta2 (Homo sapiens). Briefly: Antagonist activity at human alpha3beta2 nAChR expressed in Xenopus laevis oocytes assessed as inhibition of Ach-induced response incubated for 5 mins by two electrode voltage-clamp assay. It counts as cell-based. The note with it: Oocyte, filed as antagonist, dose 1-30 µM.
In experiment [16] the target is T3, Neuronal acetylcholine receptor; alpha9/alpha10 (Homo sapiens). Kind of experiment: Antagonist activity at human alpha9alpha10 nAChR expressed in Xenopus laevis oocytes assessed as inhibition of Ach-induced response incubated for 5 mins by two electrode voltage-clamp assay. The conditions noted are these: Oocyte, filed as antagonist, dose 1-30 µM. In kind it is cell-based.

Active and inactive are the calls of the source.

This is an account of results in ChEMBL document CHEMBL4819053, “Alkyne-Bridged α-Conotoxin Vc1.1 Potently Reverses Mechanical Allodynia in Neuropathic Pain Models” (J Med Chem, 2021).

For orientation: inhibition means how much of the control response was suppressed. By IC50 is commonly meant the concentration at which inhibition is half-maximal.

As to `CC[C@H](C)[C@@H]1NC(=O)[C@H](CCC(=O)O)NC(=O)[C@@H]2CCCN2C(=O)[C@H](Cc2cnc[nH]2)NC(=O)[C@H](CC(=O)O)NC(=O)[C@H](Cc2ccc(O)cc2)NC(=O)[C@H](CC(N)=O)NC(=O)[C@@H]2CC#CC[C@@H](NC(=O)CN)C(=O)N[C@H](CSSC[C@@H](C(N)=O)NC1=O)C(=O)N[C@@H](CO)C(=O)N[C@@H](CC(=O)O)C(=O)N1CCC[C@H]1C(=O)N[C@@H](CCCNC(=N)N)C(=O)N2`, the Activity was 5.5 g in the experiment with Rattus norvegicus [1]; “Dose-Dependent Effect” in the experiment on Rattus norvegicus [3]; 5.38 g in the experiment with Rattus norvegicus [5]; 3.88 g in the experiment with Rattus norvegicus [6]; 4.88 g in the experiment with Rattus norvegicus [10]; 5.5 g with Rattus norvegicus [12]. Besides, the inhibition in experiment [2], in experiment [4] and in experiment [9] was 26% throughout. Also, the IC50 on GABA-B receptor was found to be 13 nM. In addition, the inhibition entry in [7], in experiment [8] and in experiment [11] was “inactive” in each case.

Consider `CC[C@H](C)[C@@H]1NC(=O)[C@H](CCC(=O)O)NC(=O)[C@@H]2CCCN2C(=O)[C@H](Cc2cnc[nH]2)NC(=O)[C@H](CC(=O)O)NC(=O)[C@H](Cc2ccc(O)cc2)NC(=O)[C@H](CC(N)=O)NC(=O)[C@@H]2CSSC[C@H](NC(=O)[C@@H](NC(=O)CN)CSSC[C@@H](C(N)=O)NC1=O)C(=O)N[C@@H](CO)C(=O)N[C@@H](CC(=O)O)C(=O)N1CCC[C@H]1C(=O)N[C@@H](CCCNC(=N)N)C(=O)N2`, for which the inhibition result in experiment [13] and in experiment [14] was “Active” throughout. The inhibition in experiment [2] is 25%; in experiment [4], 25%; in experiment [8] (filed as antagonist) it was “Dose-Dependent Effect”; in experiment [9], 25%; in experiment [15], “Dose-Dependent Effect”; in experiment [16], “Dose-Dependent Effect”. The IC50 at GABA-B receptor worked out at 21 nM.

For `CC[C@H](C)[C@@H]1NC(=O)[C@H](CCC(=O)O)NC(=O)[C@@H]2CCCN2C(=O)[C@H](Cc2cnc[nH]2)NC(=O)[C@H](CC(=O)O)NC(=O)[C@H](Cc2ccc(O)cc2)NC(=O)[C@H](CC(N)=O)NC(=O)[C@@H]2CCCC[C@@H](NC(=O)CN)C(=O)N[C@H](CSSC[C@@H](C(N)=O)NC1=O)C(=O)N[C@@H](CO)C(=O)N[C@@H](CC(=O)O)C(=O)N1CCC[C@H]1C(=O)N[C@@H](CCCNC(=N)N)C(=O)N2`, the inhibition was 0.06% in experiment [2], 0.06% in experiment [4], greater than 90% in [7] (filed as antagonist) and 0.06% in [9].
